Earlier results, collected in patent US20240423897A1, “LONGEVITY SERUM” (Wellbeam Consumer Health Intermediate, LLC, priority 2023, published 2024).

Tested on: skin
Conditions: topical application

C=C[C@@](C)(/C=C/c1ccc(O)cc1)CCC=C(C)C [bakuchiol]
effect on lines and wrinkles, pigmentation, elasticity, firmness, and photo-damage: significant improvement
irritating effect on the skin: no irritating effect
